In ChEMBL document CHEMBL1154161, “Synthesis, kinetic studies and pharmacological evaluation of mutual azo prodrugs of 5-aminosalicylic acid for colon-specific drug delivery in inflammatory bowel disease” (Eur J Med Chem, 2009):
Calls of active or inactive are those of the source. The rule behind the calls is not given here.

Experiments:
[1] = system: Rattus norvegicus; experiment: Antiarthritic activity against Freund's adjuvant-induced arthritis in Wistar rat assessed as reduction in paw volume administered 13 days after Freund's adjuvant challenge measured on day 21; type: functional; design: concentration or dose not given beside the values
[2] = Aqueous solubility of the compound; type: physicochemical; settings: aqueous medium
[3] = Partition coefficient, log P in n-octanol/phosphate buffer of pH 7.4; type: physicochemical
[4] = Stability in 0.05 M hydrochloric acid buffer of pH 1.2; type: physicochemical
[5] = system: Rattus norvegicus; experiment: Antiinflammatory activity against trinitrobenzenesulfonic acid-induced colitis in Wistar rat assessed as decrease in colonic myeloperoxidase activity at 100 mg/kg, po measured 24 hrs after last dose on day 11 by spectrometry; type: functional, organism-based; design: dose 100 mg/kg
[6] = Stability in rat feces assessed as cumulated 5-aminosalicylic acid release measured for 6 to 7 hrs by UV spectrophotometry in presence of azo reductase; type: ADME, tissue-based
[7] = Stability in rat feces assessed as half life at 250 ug/mL by UV spectrophotometry in presence of azo reductase; type: ADME, tissue-based
[8] = system: Rattus norvegicus; experiment: Gastrointestinal toxicity in Wistar rat assessed as ulcer index at 3647.7 mg/kg, po by Rainsford's cold stress method; type: organism-based; design: dose 3647.7 mg/kg, route oral; settings: in vivo
[9] = system: Rattus norvegicus; experiment: Antiinflammatory activity against trinitrobenzenesulfonic acid-induced colitis in Wistar rat assessed as decrease in colon to body weight ratio at 100 mg/kg, po measured 24 hrs after last dose on day 11; type: functional, organism-based; design: dose 100 mg/kg
[10] = system: Rattus norvegicus; experiment: Antiinflammatory activity against trinitrobenzenesulfonic acid-induced colitis in Wistar rat at 100 mg/kg, administered rectally; type: functional, organism-based; design: dose 100 mg/kg
[11] = system: Rattus norvegicus; experiment: Gastrointestinal toxicity in Wistar rat assessed as ulcer index at 1154.3 mg/kg, po by Rainsford's cold stress method; type: organism-based; design: dose 1154.3 mg/kg, route oral; settings: in vivo
[12] = system: Rattus norvegicus; experiment: Antiinflammatory activity against trinitrobenzenesulfonic acid-induced colitis in Wistar rat assessed as decrease in appearance of mucosal abscess at 100 mg/kg administered rectally measured 24 hrs after last dose on day 11 by haematoxylin/eosin staining; type: functional, organism-based; design: dose 100 mg/kg
[13] = system: Rattus norvegicus; experiment: Antiinflammatory activity against trinitrobenzenesulfonic acid-induced colitis in Wistar rat at 100 mg/kg, administered rectally in presence of 5-aminosalicylic acid; type: functional, organism-based; design: dose 100 mg/kg
[14] = system: Rattus norvegicus; experiment: Antiinflammatory activity against trinitrobenzenesulfonic acid-induced colitis in Wistar rat assessed as decrease in inflammatory cell infiltration at 100 mg/kg administered rectally measured 24 hrs after last dose on day 11 by haematoxylin/eosin staining in presence of sulfasalazine; type: functional, organism-based; design: dose 100 mg/kg
[15] = system: Rattus norvegicus; experiment: Antiinflammatory activity against trinitrobenzenesulfonic acid-induced colitis in Wistar rat assessed as decrease in appearance of mucosal abscess at 100 mg/kg administered rectally measured 24 hrs after last dose on day 11 by haematoxylin/eosin staining in presence of sulfasalazine; type: functional, organism-based; design: dose 100 mg/kg
[16] = system: Rattus norvegicus; experiment: Antiinflammatory activity against trinitrobenzenesulfonic acid-induced colitis in Wistar rat assessed as decrease in inflammatory cell infiltration at 100 mg/kg administered rectallysmeasured 24 hrs after last dose on day 11 by haematoxylin/eosin staining; type: functional, organism-based; design: dose 100 mg/kg
[17] = system: Rattus norvegicus; experiment: Antiinflammatory activity against trinitrobenzenesulfonic acid-induced colitis in Wistar rat assessed as decrease in appearance of mucosal abscess at 100 mg/kg, po measured 24 hrs after last dose on day 11 by haematoxylin/eosin staining; type: functional, organism-based; design: dose 100 mg/kg
[18] = Stability in phosphate buffer of pH 7.4 assessed as drug release after 7 hrs; type: physicochemical; settings: pH 7.4, 7 h
[19] = system: Rattus norvegicus; experiment: Gastrointestinal toxicity in Wistar rat assessed as ulcer index at 2829 mg/kg, po by Rainsford's cold stress method; type: organism-based; design: dose 2829 mg/kg, route oral; settings: in vivo
[20] = system: Rattus norvegicus; experiment: Gastrointestinal toxicity in Wistar rat assessed as ulcer index at 3050 mg/kg, po by Rainsford's cold stress method; type: organism-based; design: dose 3050 mg/kg, route oral; settings: in vivo
[21] = system: Rattus norvegicus; experiment: Antiinflammatory activity against trinitrobenzenesulfonic acid-induced colitis in Wistar rat at 100 mg/kg, po; type: functional, organism-based; design: dose 100 mg/kg
[22] = system: Rattus norvegicus; experiment: Antiinflammatory activity against trinitrobenzenesulfonic acid-induced colitis in Wistar rat assessed as decrease in inflammatory cell infiltration at 100 mg/kg, po measured 24 hrs after last dose on day 11 by haematoxylin/eosin staining; type: functional, organism-based; design: dose 100 mg/kg
[23] = system: Rattus norvegicus; experiment: Gastrointestinal toxicity in Wistar rat assessed as ulcer index at 3000 mg/kg, po by Rainsford's cold stress method; type: organism-based; design: dose 3000 mg/kg, route oral; settings: in vivo

Row | Compound | Activity [1] [%] | solubility [2] [mg/mL] | logD [3] | Stability [4] | Activity [5] | Activity [6] [%] | half-life at 250 ug/mL [7] [h] | Activity [9] | Activity [10] | Activity [12] | Activity [13] | Activity [14] | Activity [17] | also measured
1 | O=C([O-])c1cc(/N=N/[C@@H](Cc2ccc(O)cc2)C(=O)[O-])ccc1O.[Na+].[Na+] | 62 | 260 | 0.35 | Stable | Active | 87 | 2.33 | Active | Active | – | – | – | – | UI [8]: 10.76
2 | Nc1ccc(C(=O)O)c(O)c1 [AMINOSALICYLIC ACID] | – | – | – | – | – | – | – | – | – | – | – | – | – | UI [11]: 69.61
3 | N[C@H](Cc1ccccc1)C(=O)O | – | – | – | – | – | – | – | – | Active | Active | Active | Active | Active | Activity [15]: Active; Activity [16]: Active
4 | O=C([O-])c1cc(/N=N/[C@@H](Cc2c[nH]c3ccccc23)C(=O)[O-])ccc1O.[Na+].[Na+] | 62 | 280 | 0.26 | Stable | Active | 88 | 2.4 | Active | Active | – | – | – | – | Activity [18]: 15%; UI [19]: 13
5 | O=C([O-])c1cc(/N=N/[C@H](Cc2ccccc2)C(=O)[O-])ccc1O.[Na+].[Na+] | 62 | 250 | 0.3 | Stable | Active | 85 | 2.67 | Active | Active | – | – | – | – | Activity [18]: 15%; UI [20]: 11.3
6 | N[C@@H](Cc1c[nH]c2ccccc12)C(=O)O | – | – | – | – | – | – | – | – | – | Active | Active | Active | Active | Activity [15]: Active; Activity [21]: Active; Activity [16]: Active; Activity [22]: Active
7 | O=C(O)c1cc(/N=N/c2ccc(S(=O)(=O)Nc3ccccn3)cc2)ccc1O [SULFASALAZINE] | 73 | – | – | – | Active | – | – | Active | Active | – | – | – | – | UI [23]: 9
8 | N[C@@H](Cc1ccc(O)cc1)C(=O)O | – | – | – | – | – | – | – | – | – | Active | Active | Active | inactive | Activity [21]: inactive; Activity [22]: inactive
9 | Nc1ccc(O)c(C(=O)O)c1 [MESALAMINE] | 47 | – | – | – | – | – | – | – | – | – | – | – | – | UI [11]: 60.03
